Test results: ChEMBL document CHEMBL1268959, “Synthesis and pharmacological activity of 1,3,6-trisubstituted-4-oxo-1,4-dihydroquinoline-2-carboxylic acids as selective ET(A) antagonists” (Bioorg Med Chem Lett, 2010)
Calls of active or inactive are those of the source. No cut-off for these calls is given here.

Assays:
[1] = molecular target: T1, Endothelin receptor type B (Homo sapiens, UniProt P24530); experiment: Displacement of [125I]ET1 from human ETB receptor expressed in membranes
T1 sequence (P24530 whole entry): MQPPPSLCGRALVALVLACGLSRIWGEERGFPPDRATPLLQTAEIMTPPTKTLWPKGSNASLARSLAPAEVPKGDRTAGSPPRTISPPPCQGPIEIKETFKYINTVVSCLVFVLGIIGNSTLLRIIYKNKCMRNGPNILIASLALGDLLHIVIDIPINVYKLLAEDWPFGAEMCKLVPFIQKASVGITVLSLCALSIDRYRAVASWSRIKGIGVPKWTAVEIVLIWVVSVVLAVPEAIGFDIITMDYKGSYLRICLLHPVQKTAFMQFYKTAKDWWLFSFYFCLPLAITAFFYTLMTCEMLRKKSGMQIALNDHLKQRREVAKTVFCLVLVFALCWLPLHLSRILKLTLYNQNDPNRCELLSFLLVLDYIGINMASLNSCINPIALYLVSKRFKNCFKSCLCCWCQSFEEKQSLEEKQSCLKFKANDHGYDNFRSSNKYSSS

[2] = Selectivity ratio, ratio of IC50 for ETB receptor to IC50 for ETA receptor
Endothelin-1 receptor = molecular target: T2, Endothelin-1 receptor (Homo sapiens, UniProt P25101); experiment: Displacement of [125I]ET1 from ETA receptor expressed in african green monkey CCL-81 cells monolayer; type: cell-based
T2 sequence (P25101 whole entry): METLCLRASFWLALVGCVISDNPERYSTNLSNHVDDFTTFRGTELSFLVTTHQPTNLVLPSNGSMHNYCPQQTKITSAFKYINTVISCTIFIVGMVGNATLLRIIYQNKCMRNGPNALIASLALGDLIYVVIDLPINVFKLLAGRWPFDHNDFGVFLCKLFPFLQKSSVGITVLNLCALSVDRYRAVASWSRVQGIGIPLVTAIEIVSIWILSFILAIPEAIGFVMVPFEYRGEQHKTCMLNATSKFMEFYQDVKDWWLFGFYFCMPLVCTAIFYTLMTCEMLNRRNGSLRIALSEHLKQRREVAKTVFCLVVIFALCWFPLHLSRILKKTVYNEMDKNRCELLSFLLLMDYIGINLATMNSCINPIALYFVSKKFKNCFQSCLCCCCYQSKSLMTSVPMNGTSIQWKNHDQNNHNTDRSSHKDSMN

Hamster [3] = experiment: Antiinflammatory activity against LPS-induced lung inflammation in hamster model assessed as reduction in bronchoalveolar lavage fluid leukocytes; type: functional, organism-based; details: Cricetinae
Hamster [4] = experiment: Antiinflammatory activity against ET1-induced lung inflammation in hamster model assessed as reduction in bronchoalveolar lavage fluid leukocytes; type: functional, organism-based; details: Cricetinae
Mus musculus = species on record: Mus musculus; experiment: Inhibition of LPS-induced preterm delivery in pregnant mouse model; type: functional, organism-based
Hamster [5] = experiment: Antiinflammatory activity against cigarette smoke-induced lung inflammation in hamster model assessed as reduction in bronchoalveolar lavage fluid leukocytes; type: functional, organism-based; details: Cricetinae

SMILES | IC50 [1] [nM] | Ratio IC50 [2] | IC50 (Endothelin-1 receptor) [nM] | inhibition (Hamster [3]) | inhibition (Hamster [4]) | inhibition (Mus musculus) | inhibition (Hamster [5])
CCc1cc2c(cc1Cn1c(C(=O)O)c(Cc3cccc(C(=O)O)c3)c(=O)c3cc(OCOC)ccc31)OCO2 | 1030 | 43 | 24.4 |  |  |  | 
CCc1cc2c(cc1Cn1c(C(=O)O)c(Cc3cccc(C(=O)O)c3)c(=O)c3cc(OCCCO)ccc31)OCO2 | 4390 | 593 | 7.4 |  |  |  | 
CCc1cc2c(cc1Cn1c(C(=O)O)c(Cc3cccc(C(=O)O)c3)c(=O)c3cc(O)ccc31)OCO2 | 15600 | 399 | 38.9 | Active | Active | Active | Active
CCc1cc2c(cc1Cn1c(C(=O)O)c(Cc3cccc(C(=O)O)c3)c(=O)c3cc(OC(C)C)ccc31)OCO2 | 677 | 50 | 13.5 |  |  |  | 
CCCCOc1ccc2c(c1)c(=O)c(Cc1cccc(C(=O)O)c1)c(C(=O)O)n2Cc1cc2c(cc1CC)OCO2 | 548 | 381 | 1.44 |  |  |  | 
CCCOc1ccc2c(c1)c(=O)c(Cc1cccc(C(=O)O)c1)c(C(=O)O)n2Cc1cc2c(cc1CC)OCO2 | 913 | 8300 | 0.11 |  |  |  | 
CCc1cc2c(cc1Cn1c(C(=O)O)c(Cc3cccc(C(=O)O)c3)c(=O)c3ccccc31)OCO2 | 571 | 827 | 0.69 |  |  |  | 
CCCCCOc1ccc2c(c1)c(=O)c(Cc1cccc(C(=O)O)c1)c(C(=O)O)n2Cc1cc2c(cc1CC)OCO2 |  |  | 610 |  |  |  | 
CCc1cc2c(cc1Cn1c(C(=O)O)c(Cc3cccc(C(=O)O)c3)c(=O)c3cc(OCC(=O)O)ccc31)OCO2 | 1450 | 5 | 285 |  |  |  | 
CCc1cc2c(cc1Cn1c(C(=O)O)c(Cc3cccc(C(=O)O)c3)c(=O)c3cc(OCC(C)C)ccc31)OCO2 | 1980 | 315 | 6.3 |  |  |  | 

Second part, led by results:

IC50 [1] [nM] | Ratio IC50 [2] | IC50 (Endothelin-1 receptor) [nM] | SMILES | inhibition (Hamster [3]) | inhibition (Hamster [4]) | inhibition (Mus musculus) | inhibition (Hamster [5])
 |  | 116 | CCc1cc2c(cc1Cn1c(C(=O)O)c(Cc3cccc(C(=O)O)c3)c(=O)c3cc(OCC4CC4)ccc31)OCO2 |  |  |  | 
3120 | 473 | 6.6 | CCOc1ccc2c(c1)c(=O)c(Cc1cccc(C(=O)O)c1)c(C(=O)O)n2Cc1cc2c(cc1CC)OCO2 |  |  |  | 
 |  | 24.8 | CC(C)C[C@@H]1NC(=O)[C@@H](C(C)C)NC(=O)[C@@H]2CCCN2C(=O)C(CC(=O)O)NC(=O)[C@@H](Cc2c[nH]c3ccccc23)NC1=O (single isomer, unassigned) [BQ-123] |  |  |  | 
 |  | 9.9 | CCc1cc2c(cc1Cn1c(C(=O)O)c(Cc3cccc(C(=O)O)c3)c(=O)c3cc(OC(C)CC)ccc31)OCO2 (stereo unspecified) |  |  |  | 
1130 | 30 | 38.1 | C=CCOc1ccc2c(c1)c(=O)c(Cc1cccc(C(=O)O)c1)c(C(=O)O)n2Cc1cc2c(cc1CC)OCO2 |  |  |  | 
